What was measured:
[1] = Unbound fraction in plasma (rapid equilibrium dialysis), dog; assay type: in vitro ADME; conditions: dogs plasma, 0.3, 1, 3 μM, RED 5 h, read-out: fu,p
Procedure: The unbound fractions of IDP-73152 in various matrices were measured according to the manufacturer’s instructions for the rapid equilibrium dialysis (RED) device (ThermoFisher Scientific, Waltham, MA, USA). Briefly, IDP-73152 was added to the plasma or the microsomal/hepatocyte incubation buffer from various species (i.e., mouse, rat, dog, and human for microsomal incubation; rat for hepatocyte incubation) to obtain final concentrations of the compound at 0.3, 1, and 3 μM. After the membrane insert was placed in the RED plate, the solution containing IDP-73152 was added (400 µL) to the sample chamber, and the dialysis buffer (600 μL) was added to the buffer chamber. The RED plate was sealed with parafilm and then incubated at 37 °C in the orbital shaker (Lab Companion, Daejeon, Korea) at 100 rpm for 5 h. After a 50 μL aliquot was aspirated from both the sample and buffer chambers, an equal volume of protein-free buffer or blank medium was replaced in the aspirated sample or buffer to render the matrices compositionally identical. The IDP-73152 concentration in the buffer/sample chambers (i.e., CBuffer Chamber and CSample Chamber) was determined by an assay. Thus, the fraction unbound was defined as:(2) % Fraction unbound=(CBuffer Chamber/CSample Chamber)×100%

[2] = Metabolic stability in liver microsomes, human; assay type: in vitro ADME
Procedure: In this study, the metabolic stability of IDP-73152 in microsomes from mice, rats, dogs, and humans, as well as rat hepatocytes, was determined. For a microsomal incubation study, the incubation mixtures, containing mouse, rat, dog, or human liver microsomes at a protein concentration of 0.5 mg/mL, 3.3 mM MgCl2, and 1.3 mM NADPH, in a 100 mM potassium phosphate buffer (pH 7.4), were preincubated for 3 min at 37 °C. In parallel, a control incubation mixture (i.e., identical composition to that of the incubation mixture without NADPH) was also prepared for comparison. The reaction was initiated by the addition of a 10 × solution of IDP-73152 (final concentration in mixtures of 1 μM) to the incubation mixtures or the control incubation mixtures. The mixtures were incubated in a shaking water bath (37 °C, 90 rpm). Aliquots (30 μL) were collected at 0, 15, 30, and 45 min from the mixture and the reaction was terminated by the addition of a 4-fold volume of ice-cold acetonitrile to the sample. The mixture was then vortexed for 5 min and centrifuged for 10 min at 10,000× g. The supernatant was collected and stored at -80 °C until the analysis. For the hepatocyte incubation study, rat hepatocytes were freshly prepared using the two-step collagenase perfusion method with slight modifications. After the isolation, cell viability during the preparation process was first determined by a trypan blue exclusion assay prior to the stability study. The preparation was considered adequate for subsequent studies if the viability was greater than 80%. When appropriate, the hepatocytes were resuspended in Williams' media E containing 10% fetal bovine serum, 1% penicillin-streptomycin, and 0.01% insulin-transferrin-selenium (i.e., 10 mg/mL insulin, 5.5 mg/mL transferrin, and 5 mg/mL selenium) at pH 7.4. The reaction was carried out with the hepatocyte suspension prepared at 1 × 10^6 cells/mL (0.5 mL) and initiated by the addition of equal volume of IDP-73152 solution (i.e., final concentration of the compound at 1 μM in 0.5 × 10^6 cells/mL of hepatocytes) to the hepatocyte suspension. […] Assuming first-order disappearance kinetics, the slope k of the logarithmically transformed IDP-73152 concentration in the sample versus time plot was determined by the linear regression analysis of the data. The total intrinsic clearance (CLint,mic, μL/min/mg protein for microsomal incubation study and CLint,hep, μL/min/million cells for hepatocytes incubation study) was then calculated using the following equations:(4) CLint, mic=k×Volume of incubation medium (μL)/Protein in incubation medium (mg) (5) CLint,hep=k×Volume of incubation (μL)/Number of cells in incubation (×10^6) The unbound intrinsic clearance, with respect to the whole liver ([…]), was then estimated for the two cases. […]

[3] = Biliary and renal excretion in bile duct-cannulated rats; assay type: in vivo; conditions: intravenous 5 mg/kg, up to 8 h
Procedure: Male Sprague Dawley rats (Orient Bio Inc., Seongnam, Korea), weighing 194.7 g to 205.4 g, were used in this study. IDP-73152 was administered to rats at a single dose of 2.5, 5, or 10 mg/kg via tail vein injection (the injection volume fixed at 2 mL/kg in saline). […] Blood samples (100 μL) were collected from the jugular vein at 0.167, 0.33, 0.5, 1, 2, 4, and 8 h after the administration. Plasma was separated/collected by centrifugation of the blood samples for 5 min at 10,000× g/4 °C and stored at −80 °C until analysis. When necessary, the biliary and renal excretion of IDP-73152 were studied in bile duct-cannulated rats after the intravenous injection (5 mg/kg) to investigate its route(s) of excretion in rats. Bile and urine samples were collected up to 8 h (i.e., approximately 5 times of the terminal phase half-life) after the administration and the samples were stored at −80 °C until the analysis. The cumulative excretion of the bile and the urine to infinite time was determined by assuming that the excretion was practically completed by the last collection time.

Compound: CC(C)(C)[C@H](NC(=O)[C@H](CC1CCCC1)CN(O)C=O)C(=O)N1CCC(NCc2cc(F)c(F)cc2F)CC1 [IDP-73152]
- fraction unbound at 5 h [1]: 0.0547 ± 0.0053
- CLhep predicted at 1 μM ([2]; human, liver microsomes, pH 7.4, humans, from microsomal stability data, well-stirred liver model, read-out: CLp expected in humans (converted)): ~3.17 mL/min/kg
- microsomal CLint at 1 μM ([2]; human, microsomes, pH 7.4): 31.8 ± 2.2 µL/min/mg
- hepatic ER (extraction ratio) ([2]; humans, from microsomal clearance, well-stirred model): 0.159 ± 0.009
- CLu,int,H ([2]; humans, scaled up to the whole liver from microsomes): 206 ± 14 L/h
- biliary recovery of intact drug [3]: 0.512 ± 0.154 % of the dose
- urinary recovery of intact drug [3]: 1.21 ± 0.48 % of the dose
